We go through 7 compounds from US9688630B2, “3,3′-disubstituted indolines as inhibitors of cholesterol ester transfer protein” (Merck Sharp & Dohme Corp., priority 2013, dated 2017).

The conditions of data set [1]: Phase III outcomes trial, cited from earlier work.
The conditions of data set [2]: cited from earlier work.
For data set [3] the following is noted: torcetrapib and atorvastatin concomitantly, compared with atorvastatin alone; cited from earlier work.
Another data set addresses T1, recombinant CETP (Homo sapiens, UniProt P11597).
T1 sequence (P11597 18-493): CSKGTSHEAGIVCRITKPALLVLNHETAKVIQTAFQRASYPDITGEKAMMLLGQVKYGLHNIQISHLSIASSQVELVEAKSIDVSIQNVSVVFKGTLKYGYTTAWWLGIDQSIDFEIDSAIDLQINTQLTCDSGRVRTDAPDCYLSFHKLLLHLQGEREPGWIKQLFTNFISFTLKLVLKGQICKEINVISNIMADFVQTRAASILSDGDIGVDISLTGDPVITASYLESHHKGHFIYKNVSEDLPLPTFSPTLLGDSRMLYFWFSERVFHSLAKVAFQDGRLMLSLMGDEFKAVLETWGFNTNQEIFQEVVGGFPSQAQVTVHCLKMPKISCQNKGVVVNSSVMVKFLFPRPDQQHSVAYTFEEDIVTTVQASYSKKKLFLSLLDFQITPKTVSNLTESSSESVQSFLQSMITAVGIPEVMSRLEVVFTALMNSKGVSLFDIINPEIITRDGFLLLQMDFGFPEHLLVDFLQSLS
The data set can be described thus: RTA assay using recombinant CETP (2% RTA). The format is biochemical. The settings on record: 2% human serum. The method, then: (§1) In Vitro Radioactive Assays of CETP-Catalyzed CE and TG Transfer (RTA Assay)
(§2) Reagents and sources are: [3H] cholesteryl oleate (GE #TRK.886), [3H] Triolein (Perkin-Elmer NET-431), Butylated hydroxyl toluene (Aldrich, #D4740-4), DOPC (Sigma, #P6354), Sodium Bromide (Fisher scientific #S255-500), PEG 8000 (Fisher, #BP233-1), and human HDL (Intracel Corp #RP-036).
(§3) An in vitro assay for determining IC50's to identify compounds that inhibit CETP transfer activity is performed based on a modification of a published method (Morton and Zilversmit, (1981) A plasma inhibitor of triglyceride and cholesteryl ester transfer activities, J. Biol. Chem. 256(23), 11992-11995). The ability of inhibitors to alter CETP activity is performed using two different assays: one using recombinant CETP and one using an endogenous plasma source of CETP. Both assays measure the transfer of [3H] cholesteryl oleate or [3H] triolein from exogenous LDL to HDL.
(§4) Radiolabeled donor particles are generated by first combining 100 μl of 200 μM butylated hydroxyl toluene in CHCl3, 216 μL of 21.57 mM DOPC in EtOH, and either 500 μCi [3H]-triolein (Perkin Elmer #NET-431) or 500 μCi [3H]-cholesteryl oleate (GE #TRK886) in a glass tube. Reagents are mixed, dried under nitrogen, and then resuspended in 2 mL of 50 mM Tris, 27 μM EDTA at pH 7.4. After a brief vortex, the solution is sonicated until clear and mixed with 20 mL of fresh human serum. The mixture is incubated overnight at 37° C. The [3H] labeled LDL substrate is separated at 1.063 g/ml density by sequential ultracentrifugal flotation in NaBr according to the method of Havel, Eder, et al., 1955, and Chapman, Goldstein, et al., 1981. Once isolated the particles are dialyzed 3× in CETP buffer (50 mM Tris, pH 7.4, 100 mM NaCl, 1 mM EDTA). Human HDL is purchased from Intracel and used as the acceptor particles.
(§5) Transfer assays are performed in a 96-well v-bottom polypropylene plate. For the RTA using recombinant CETP (2% RTA), an assay cocktail is prepared with the final concentrations 128 μg/mL HDL, 20 nM rCETP, 2% human serum, and 1×CETP buffer. 1 μL of each test compound diluted in DMSO is added to 47 μL of assay cocktail per well and incubated at 37° C. for 1 hour. To initiate the transfer reaction, 2 μL radiolabeled LDL is added. After an additional 60 min of incubation at 37° C., the transfer action is terminated by precipitation of LDL with an equal volume of 20% W/V PEG 8000. The plates are centrifuged at 2000 rpm for 30 minutes at 4° C. A 40 μL aliquot of the HDL-containing supernatant is transferred to a Packard Optiplate™ with 200 μL of MicroScint™ 20. After mixing, plates are counted by liquid scintillation. Counts present in the supernatant for blanks (wells containing only HDL acceptor, CETP buffer and DMSO) are subtracted from those containing test compounds and used to correct for non-specific transfer.
(§6) Comparison of the counts of samples with inhibitors to an uninhibited (DMSO only) positive control yield a percent inhibition. A plot of percent inhibition vs. log of inhibitor concentration, fit to a Sigmoidal 4 parameter equation is used to calculate IC50.

Data set [4] addresses T2, endogenous CETP from human serum (Homo sapiens, UniProt P11597).
T2 construct: yielding a concentration of approximately 15 nM endogenous CETP in the assay; from tissue; host or cells: human serum
T2 sequence (P11597 18-493): T1 sequence (P11597 18-493)
The experiment in a line: RTA assay using endogenous CETP from serum (95% RTA). The settings on record: 95% human serum. In kind it is biochemical. The method, then: as §1, §2, §3, §4, §5
For the transfer assay using endogenous CETP from serum (95% RTA), the same procedure is used except that human serum is added such that a final concentration of serum of 95% of the total assay volume is achieved, yielding a concentration of approximately 15 nM endogenous CETP in the assay. This is then combined with HDL and CETP buffer and the reaction proceeds as above and is terminated as described.
as §6

[5] abbreviates: patients on baseline statin therapy, compared with patients treated with just a statin.

SMILES strings stand for the structures.

As for `CCC(CC)CC1(C(=O)Nc2ccccc2SC(=O)C(C)C)CCCCC1` [dalcetrapib], the “clinical benefit (interim data)” value in data set [1] (terminated early) is recorded as “did not show a clinical benefit”. For the same compound, in data set [1], the safety issues result is “no safety issues detected”.

In the case of `COc1cc(F)c(C(C)C)cc1-c1ccc(C(F)(F)F)cc1CN1C(=O)O[C@H](c2cc(C(F)(F)F)cc(C(F)(F)F)c2)[C@@H]1C` [anacetrapib], in data set [2] (setting [5]), the “decrease of LDL-C” value is given as 40% and the “increase of HDL-C” value was 138%. In data set [2] (patients treated with anacetrapib, DEFINE trial), the increase in mortality result is listed as “unlikely”.

Regarding `CCOC(=O)N1c2ccc(C(F)(F)F)cc2[C@@H](N(Cc2cc(C(F)(F)F)cc(C(F)(F)F)c2)C(=O)OC)C[C@H]1CC` [torcetrapib], the incidence of mortality result in data set [3] is listed as “higher incidence of mortality”.

`O[C@H](CN1CC(Cc2ccccc2OC(F)(F)F)(c2cccc(OC(F)(F)F)c2)c2ccccc21)C(F)(F)F` (some centres unmarked) [Example 9]: the IC50 on recombinant CETP worked out at 1.21 µM; in data set [4], 3.37 µM.

Take `O[C@H](CN1CC(Cc2cccc(OC(F)(F)F)c2)(c2cccc(N3CCC(F)(F)CC3)c2)c2ccccc21)C(F)(F)F` (some centres unmarked) [Example 39]: the IC50 stood at 0.164 µM on recombinant CETP and 1.08 µM in data set [4].

In the case of `O[C@H](CN1CC(Cc2cccc(OC(F)(F)F)c2)(c2cccc(N3CCCC(F)(F)C3)c2)c2ccccc21)C(F)(F)F` (some centres unmarked) [Example 40], the values for the 50% inhibitory concentration (IC50) (at recombinant CETP; in data set [4]) were 0.119 µM and 0.791 µM, respectively.

For the compound `O[C@H](CN1CC(Cc2cccc(OC(F)(F)F)c2)(c2cc(F)cc(C(F)(F)F)c2)c2ccccc21)C(F)(F)F` (some centres unmarked) [Example 13], the figures for the IC50 (on recombinant CETP; in data set [4]) were 0.102 µM and 2.51 µM, respectively.
